Assay results from patent publication US20040009947A1, “Compounds and methods for enhancing delivery of free polynucleotide” (priority 1998, published 2004).
Entries after “also recorded” stand apart in the source; their conditions may differ. Structures can show the parent of a compound that is named as a salt.

Legend:
Macaque Skin = assay: Intradermal injection of luciferase DNA into macaque skin +/- ATA; assay type: in vivo; conditions: 100 μg plasmid and 50 μg ATA intradermal versus plasmid alone
Method: To further confirm the utility of nuclease inhibitors in combination with direct DNA delivery, the activity of free plasmid DNA +/− ATA in skin tissues was tested. The plasmid and animal protocols were identical to those described above. Intradermal injections were performed by injecting 100 μl solutions using 30 gauge needle.
The experiment was further extended from murine to primate, testing direct intradermal injection on macaques. The control solution was identical to that described for the mice and rat protocols. The test solution contained 100 μg of pND21ux plasmid and 50 μg of ATA in 100 μl water. Ten macaques were included in the control group and twelve were included in the test group.

[1] = tested on: macaque respiratory tissues; assay: Bronchoscopic administration of plasmid +/- ATA to macaque lung, luciferase assay and histology; assay type: in vivo; conditions: 48 hours after treatment, H&E
Method: Extending the experiment from murine to nonhuman primate respiratory tissues, the activity of ‘free’ plasmid DNA +/− ATA in macaque respiratory tissues using male rhesus macaques was tested. Initially, the lavage fluid is tested for DNAse activity +/− ATA by incubation with plasmid after which gel electrophoresis is performed as described above with murine lung lavage samples. After a 70 day quarantine, the animals are treated using three general techniques. For direct administration of […] to pulmonary parenchyma, macaques are anesthetized (ketamine, veterinarian assisted) and a pediatric bronchoscope will be passed per nasum with direct visualization of the bronchial tree. Typically, plasmid preparations (3 ml/Kg macaque weight) or related treatments (plasmid/ATA mixtures etc.) are instilled directly via the bronchoscope into the right lower lobe. The left upper lobe of the same macaque is used as an internal control. […]
As described above, relative luciferase activity is determined using the Enhanced Luciferase Assay Kit and a Monolight 2010 luminometer (both from Analytical Luminescence Laboratories, San Diego, Calif.). […] Luciferase light emissions from 31 microliters of the lysate are measured over a 10 second period, and results are expressed as a function of total protein, total tissue mass, and total DNA dose.

mouse lung = assay: Intratracheal plasmid transfection of mouse lung, luciferase reporter assay of lung homogenate; assay type: in vivo; conditions: for Level of reporter protein expression after intratracheal administration of plasmid, enhancement by co-administration: intratracheal plasmid with DNAse inhibitor, mouse lung
NIH3T3 = assay: Transfection of cultured cells with DNA/DOTAP +/- ATA, luciferase assay; assay type: cell-based; conditions: very highest doses 80 μg/ml, 40 μg/ml, 10 μg/ml
Method: NIH3T3 (ATCC CRL 1658) were grown in Dulbecco's Modified Eagle's Medium and 10% calf serum. NIH3T3 were also plated at a density of 5×10^4 cells/ml in 24 well plates 24 hours prior to transfection and cells were transfected as subconfluent monolayer.
The sequential addition of appropriate amounts of serum-free DMEM, plasmid DNA ([…]), ATA in serum-free DEM and filter sterilized (see below for doses), and DOTAP (DOTAP:DNA formulation of 5 μg: 1 μg) were pippetted into a 2 ml Eppendorf tube to give a total volume of […] and mixed with a vortex mixer. A […] aliquot of the resultant transfection complex was added to each well of the cells above after the cell media had been aspirated off. The cells were incubated for 2 hours at 37° C. At the two hour time point, the mixture was removed and one ml of culture media was added to each well. […]
(§1) Relative luciferase activity was determined using the Enhanced Luciferase Assay Kit and Monolight 2010 luminometer (Analytical Luminescence Laboratories, San Diego, Calif.). […] For In vitro experiments, luciferase light emissions from 20 μl of the cell lysate were measured over a 10 second period, and results expressed as a function of the total lysate volume. For in vivo experiments, luciferase light emissions from […] of the lysate were measured over a 10 second period, and results expressed as a function of the total lysate volume.

16HBE14o = assay: as above; assay type: cell-based, human; conditions: very highest doses 80 μg/ml, 40 μg/ml, 10 μg/ml
Method: The human respiratory epithelial cell line, 16HBE14o (Dieter Grunert, UCSF) was cultured on flasks coated with fibronectin (Collaborative Research-Bectin Dickinson), vitrogen (Collagen Corp), basal media (Biofluids, Inc.) and bovine serum albumen (Biofluids, Inc.) as previously described [Gruenert, 1990 #7; Cozens, 1994 #8]. Cells were cultured on twenty four well tissue culture plates (Corning) coated with the above mixture. Culture media was Eagle's modified essential medium (EM) supplemented with 10% fetal bovine serum. 16HBE 14o cells were plated at a density of 5×10^4 cells/ml 24 hours prior to transfection and cells were transfected as subconfluent monolayer. […]
as §1

[2] = Toxicity of intratracheal ATA/plasmid in mice (lethality, health assessment, lung histology); assay type: in vivo, mouse; conditions: for mice died: within 8 to 24 hours, pilot experiments
Method: Dose-response experiments can be used to efficacy, toxicity, and effective dose of a particular enhancing agent or polynucleotide preparation. […] Histologic evaluation of treated lung tissue was subsequently performed. […] ATA is often employed for inhibition of cultured cell apoptosis, but relatively few publications describe in vivo applications. In vivo dosing employed in published reports ranges from 4 micrograms administered to the […] cerebral ventricle of gerbils to 10 mg/kg/hour continuous infusion in a hamster carotid stenosis model Based on this literature, a dose range from 0.1 mg/kg to 8 mg/kg ATA administered with 100 micrograms of plasmid was tested. […] Subsequent histologic examination was performed using lung tissue obtained from mice treated with up to 5 mg/kg ATA.
To obtain information about toxicity, mouse lung tissue was treated with ATA +/− plasmid and routine histologic analyses were performed. […] Therefore, intratracheal instillation of plasmid +/− ATA was performed, and two days later the treated tissues were histologically analyzed after inflation and fixation in formalin followed by routine hematoxylin and eosin staining in paraffin sections. Treatment groups included untreated controls, 100 μl of water for injection (WFI), 100 μg of pND2Lux diluted in WFI, and plasmid with […] body mass diluted in WFI. The images shown in FIG. 9 are representative photomicroscopic fields that include both conducting airway and pulmonary parenchyma.

O=C(O)C1=CC(=C(c2ccc(O)c(C(=O)O)c2)c2ccc(O)c(C(=O)O)c2)C=CC1=O [ATA, aurin tricarboxylic acid]
enhancement of reporter gene expression, test group on average (Macaque Skin): 11 fold
Histologically apparent acute toxicity [1]: lack of histologically apparent acute toxicity
increase over free DNA transfections (mouse lung; doses of ATA virtually nontoxic to the lung): 57%
Toxicity to cells (NIH3T3): toxic and killed cells
Toxicity to cells (16HBE14o): toxic and killed cells
lethality due to the ATA ([2]; 2 mg/kg ATA or lower doses, during the 48 hours after treatment): no lethality
mice died ([2]; 6 mg/kg ATA intratracheal with 100 micrograms plasmid): 50%
mice died ([2]; 8 mg/kg ATA intratracheal with 100 micrograms plasmid): 100%
pulmonary dose associated with significant mortality ([2]; intratracheal, mouse): > 2 μg/g body weight
Lung histology (H&E) after intratracheal plasmid +/- ATA ([2]; mouse lung, two days after treatment, plasmid with 0.5 or 6 mg ATA/g body mass): indistinguishable; also recorded: virtually nontoxic to the lung; also recorded: No significant histologic alterations
Health assessment of mice after transfection ([2]; up to 48 hours after transfection): healthy with no physical or behavioral side effects observed

O=C(O)CN(CCN(CC(=O)O)CC(=O)O)CC(=O)O [EDTA, ethylenediaminetetraacetic acid]
Level of reporter protein expression after intratracheal administration of plasmid, enhancement by co-administration (mouse lung): Neither EDTA nor citrate significantly enhanced the level of expression

O=C(O)CC(O)(CC(=O)O)C(=O)O [sodium citrate]
Level of reporter protein expression after intratracheal administration of plasmid, enhancement by co-administration (mouse lung; listed as citrate): Neither EDTA nor citrate significantly enhanced the level of expression
